PMC6268061, “Investigation of the Biological Properties of (Hetero)Aromatic Thiosemicarbazones” (Molecules, 2012)
Converted amounts (≈) assume the structure as drawn. Read-outs that look alike come from different tables or passages of the source.

Tests used:
[1] = system: Aspergillus fumigatus 231; assay: In vitro antifungal susceptibility, broth microdilution; assay type: cell-based; details: read-out: MIC (IC50) AF
[2] = system: Candida albicans ATCC 44859; assay: as above; assay type: cell-based; details: read-out: MIC (IC80) CA
Absidia corymbifera 272 = assay: as above; assay type: cell-based; details: read-out: MIC (IC50) AC
[3] = system: HCT-116 human colon cancer cells (p53 wild type); design: method as in PMID 22858101; details: footnote 3: anticancer activity described elsewhere ref [34],[44]; cited from earlier work
Candida krusei ATCC 6258 = assay: In vitro antifungal susceptibility, broth microdilution; assay type: cell-based; details: Pichia kudriavzevii, read-out: MIC (IC80) CK
Candida tropicalis 156 = assay: as above; assay type: cell-based; details: read-out: MIC (IC80) CT
[4] = system: Trichosporon beigelii 1188; assay: as above; assay type: cell-based; details: read-out: MIC (IC80) TB
Excerpt: The broth microdilution test was used for the assessment of the in vitro antifungal activity of the synthesized compounds against Candida albicans ATCC 44859 (CA), Candida tropicalis 156 (CT), Candida krusei ATCC 6258 (CK), Candida glabrata 20/I (CG), Trichosporon beigelii 1188 (TB), Aspergillus fumigatus 231 (AF), Absidia corymbifera 272 (AC), and Trichophyton mentagrophytes 445 (TM). Fluconazole (FLU) was used as the standard since it is a clinically used antimycotic drug. The procedure was performed using a twofold dilution of the compounds in RPMI 1640 (Sevapharma a.s., Prague, Czech Republic) buffered to pH 7.0 with […] of 3-morpholino-propane-1-sulfonic acid (MOPS, Sigma, Prague, Czech Republic). The final concentrations of the compounds ranged from 500 to 0.975 μmol/L. Drug-free controls were included. The determination of minimum inhibitory concentration (MIC) was performed according to the Clinical and Laboratory Standards Institute (CLSI, formerly NCCLS) reference protocol M27-A2 for yeasts (IC80 value) and M38-A for moulds (IC50 value). IC80 and IC50 were defined as an 80% resp. 50% or greater reduction in growth in comparison with the control. The values of MICs were determined after 24 and 48 h of static incubation at 35 °C. The final MICs for T. mentagrophytes, were determined after 72 and 120 h of incubation.

[5] = Lipophilicity determination using RP-HPLC (capacity factor, log k); assay type: physicochemical; details: C18, MeOH 55%/H2O 45%
Excerpt: Reversed phase high performance liquid chromatography (RP-HPLC) methods have become popular and are widely used for lipophilicity measurements. The general procedure is the measurement of the directly accessible retention time under isocratic conditions using varying amounts of methanol as an organic modifier in the mobile phase using RP columns and calculating the logarithm of the capacity factors (log k). Log k is the logarithm of the capacity factors in chromatographic approaches that is related to the partitioning of a compound between a mobile and a (pseudo-)stationary phase. Log k is used as the lipophilicity index converted to log P scale.
A Waters Alliance 2695 XE HPLC separation module and a Waters Photodiode Array Detector 2996 (Waters Corp., Milford, MA, USA) were used. A Symmetry® C18 5 μm, 4.6 × 250 mm, Part No. WAT054275 (Waters Corp.) chromatographic column was used. The HPLC separation process was monitored using Empower™ 2 Chromatography Data Software, Waters 2009 (Waters Corp.). A mixture of MeOH p.a. (55%) and H2O-HPLC-Mili-Q Grade (45%) was used as a mobile phase. The total flow of the column was 0.9 mL/min, injection volume 30 μL, column temperature 30 °C and sample temperature 10 °C. A detection wavelength of 210 nm was chosen. A KI methanolic solution was used for the determination of dead time (tD). Retention times (tR) were measured in minutes. The capacity factors k were calculated using the Empower™ 2 Chromatography Data Software according to the formula k = (tR − tD)/tD, where tR is the retention time of the solute, whereas tD denotes the dead time obtained using an unretained analyte. Log k, calculated from the capacity factor k, is used as the lipophilicity index converted to log P scale.

Candida glabrata 20/I = assay: In vitro antifungal susceptibility, broth microdilution; assay type: cell-based; details: Nakaseomyces glabratus, read-out: MIC (IC80) CG
[6] = system: photosynthetic electron transport (PET) in spinach chloroplasts; assay: Inhibition of photosynthetic electron transport (PET) in spinach chloroplasts; assay type: biochemical, Spinacia oleracea L.; details: DCPIP photoreduction
Procedure: Chloroplasts were prepared from spinach (Spinacia oleracea L.) according to Masarovicova and Kralova. The inhibition of the photosynthetic electron transport (PET) in spinach chloroplasts was determined spectrophotometrically (Genesys 6, Thermo Fisher Scientific, Waltham, MA, USA) using an artificial electron acceptor 2,6-dichlorophenol-indophenol (DCIPP) according to Kralova et al. and the rate of photosynthetic electron transport was monitored as a photoreduction of DCPIP. The measurements were carried out in a phosphate buffer (0.02 mol/L, pH 7.2) containing sucrose (0.4 mol/L), MgCl2 (0.005 mol/L) and NaCl (0.015 mol/L). The chlorophyll content was 30 mg/L in these experiments and the samples were irradiated (~100 W/m^2 with 10 cm distance) with a halogen lamp (250 W) using a 4 cm water filter to prevent warming of the samples (suspension temperature 22 °C). The compounds studied were dissolved in DMSO due to their limited water solubility. […] The inhibitory efficiency of the compounds studied was expressed by IC50 values, i.e., by the molar concentration of the compounds that caused a 50% decrease in the oxygen evolution rate relative to the untreated control.

[7] = system: Trichophyton mentagrophytes 445; assay: In vitro antifungal susceptibility, broth microdilution; assay type: cell-based; details: read-out: MIC (IC50) TM
[8] = Aspergillus fumigatus, 231, 24 h
[9] = Aspergillus fumigatus, 231, 48 h
[10] = Lichtheimia corymbifera, 272, 24 h
[11] = Lichtheimia corymbifera, 272, 48 h
[12] = Trichosporon beigelii, 1188, 24 h
[13] = Trichosporon beigelii, 1188, 48 h
[14] = Trichophyton mentagrophytes, 445, 72 h
[15] = Trichophyton mentagrophytes, 445, 120 h

SMILES	IC50 [1, 8]	IC50 [1, 9]	MIC ([2]; ATCC44859, 24 h)	MIC ([2]; ATCC44859, 48 h)	IC50 (Absidia corymbifera 272; [10])	IC50 (Absidia corymbifera 272; [11])	IC50 [3]	MIC (Candida krusei ATCC 6258; ATCC6258, 24 h)	MIC (Candida krusei ATCC 6258; ATCC6258, 48 h)	MIC (Candida tropicalis 156; Candida tropicalis, 156, 24 h)	MIC (Candida tropicalis 156; Candida tropicalis, 156, 48 h)	MIC [4, 12]	MIC [4, 13]	log k [5]	MIC (Candida glabrata 20/I; 24 h)	MIC (Candida glabrata 20/I; 48 h)	IC50 [6]	IC50 [7, 14]	IC50 [7, 15]	other results
CN(C)C(=S)NN/C=C/c1ccc2ccccc2n1 [Compound 4b, (E)-2-(Quinolin-2-ylvinyl)-N,N-dimethylhydrazinecarbothioamide]	3.9 µM	3.9 µM	1.95 µM (≈ 0.531 µg/mL)	1.95 µM (≈ 0.531 µg/mL)	3.9 µM	3.9 µM	4.86 ± 1.48 µM	3.9 µM (≈ 1.06 µg/mL)	3.9 µM (≈ 1.06 µg/mL)	1.95 µM (≈ 0.531 µg/mL)	7.81 µM (≈ 2.13 µg/mL)	1.95 µM (≈ 0.531 µg/mL)	1.95 µM (≈ 0.531 µg/mL)	0.6184	1.95 µM (≈ 0.531 µg/mL)	1.95 µM (≈ 0.531 µg/mL)	1370 µM	3.9 µM	3.9 µM	–
CNC(=S)NN=Cc1ccc2cccc(O)c2n1 [Compound 4e]	–	–	–	–	–	–	1.71 ± 0.34 µM	–	–	–	–	–	–	0.6236	–	–	302 µM	–	–	IC50 ([1]; Aspergillus fumigatus, 231, 24 h and 48 h, only one value presented (inactive)): > 125 µM; MIC ([2]; ATCC44859, 24 h and 48 h, only one value presented (inactive)): > 125 µM; IC50 (Absidia corymbifera 272; Lichtheimia corymbifera, 272, 24 h and 48 h, only one value presented (inactive)): > 125 µM; MIC (Candida krusei ATCC 6258; ATCC6258, 24 h and 48 h, only one value presented (inactive)): > 125 µM; MIC (Candida tropicalis 156; Candida tropicalis, 156, 24 h and 48 h, only one value presented (inactive)): > 125 µM; MIC ([4]; Trichosporon beigelii, 1188, 24 h and 48 h, only one value presented (inactive)): > 125 µM; MIC (Candida glabrata 20/I; 24 h and 48 h, only one value presented (inactive)): > 125 µM; IC50 ([7]; Trichophyton mentagrophytes, 445, 72 h and 120 h, only one value presented (inactive)): > 125 µM
CNC(=S)NN=Cc1c(O)ccc2cccnc12 [Compound 4i]	> 500 µM	> 500 µM	> 500 µM	> 500 µM	> 500 µM	> 500 µM	> 25 µM	> 500 µM	> 500 µM	> 500 µM	> 500 µM	> 500 µM	> 500 µM	0.6193	> 500 µM	> 500 µM	–	> 500 µM	> 500 µM	–
CN(C)C(=S)NN=Cc1c(O)ccc2cccnc12 [Compound 4j]	> 250 µM	> 250 µM	125 µM (≈ 34.3 µg/mL)	> 250 µM	> 250 µM	> 250 µM	20.8 ± 5.34 µM	> 250 µM	> 250 µM	> 250 µM	> 250 µM	125 µM (≈ 34.3 µg/mL)	> 250 µM	0.5831	125 µM (≈ 34.3 µg/mL)	125 µM (≈ 34.3 µg/mL)	520 µM	125 µM	125 µM	–
CCNC(=S)NN=Cc1c(O)ccc2cccnc12 [Compound 4k]	> 500 µM	> 500 µM	> 500 µM	> 500 µM	> 500 µM	> 500 µM	> 25 µM	> 500 µM	> 500 µM	> 500 µM	> 500 µM	> 500 µM	> 500 µM	0.6539	62.5 µM (≈ 17.1 µg/mL)	500 µM (≈ 137 µg/mL)	–	62.5 µM	62.5 µM	–
Oc1ccc2cccnc2c1C=NNC(=S)Nc1ccccc1 [Compound 4l]	125 µM	125 µM	31.2 µM (≈ 10.1 µg/mL)	62.5 µM (≈ 20.1 µg/mL)	15.6 µM	62.5 µM	16.3 ± 1.69 µM	31.2 µM (≈ 10.1 µg/mL)	125 µM (≈ 40.3 µg/mL)	125 µM (≈ 40.3 µg/mL)	125 µM (≈ 40.3 µg/mL)	15.6 µM (≈ 5.04 µg/mL)	125 µM (≈ 40.3 µg/mL)	0.6748	15.6 µM (≈ 5.04 µg/mL)	31.2 µM (≈ 10.1 µg/mL)	–	15.6 µM	15.6 µM	–
